The values below come from patent US7332518B2, “Carboxamides as fungicides in agriculture” (Syngenta Crop Protection, Inc., priority 2001, dated 2008).

By melting point is commonly meant the temperature of the solid-liquid transition.

Regarding `Cn1cc(C(=O)NCC#Cc2ccccc2-c2ccc(Br)cc2)c(C(F)(F)F)n1` [Compound 2.010, 1-Methyl-3-trifluoromethyl-1H-pyrazole-4-carboxylic acid (4′-bromobiphenyl-2-yl)prop-2-ynyl-amide], the melting point fell in the range of 171 to 172 °C. The figure for `Cn1cc(C(=O)NC=C=Cc2ccccc2-c2ccc(Br)cc2)c(C(F)(F)F)n1` [Compound 2.123, 1-Methyl-3-trifluoromethyl-1H-pyrazole-4-carboxylic acid (4′-bromobiphenyl-2-yl)propa-1,2-dienyl-amide] is 146 to 149 °C; for `C#CCN(C(=O)c1cn(C)cc1C(F)(F)F)c1cccc2c1C(C)CC2(C)C` (stereo not drawn) [Compound 10.3, 1-methyl-4-trifluoromethyl-1H-pyrrole-3-carboxylic acid prop-2-ynyl-(1,1,3-trimethylindan-4-yl)amide] it is 142 to 144 °C.
